In patent publication US11976083B2, “Inhibitors of peptidylarginine deiminases” (Gilead Sciences, Inc., priority 2020, dated 2024):

Molecular target: T1, human PAD4 (Homo sapiens, UniProt Q9UM07)
T1 construct: human PAD4 (NM_012387), A2-P663, was PCR amplified; His-SUMO (N, cleaved yes); made in house; host or cells: E. coli BL21(DE3)
Experiment: In vitro PAD4 BAEE biochemical assay
Details: BAEE substrate 3 mM, 5 nM PAD4, 2 mM calcium chloride; geometric mean of multiple experiments
In short: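 Fluorescence read-out (ex 405/em 535 nm) of isoindole formed from ammonia, o-phthalaldehyde and DTT after EDTA stop. Reaction: 5 nM PAD4, 2 mM CaCl2, 3 mM BAEE, 2 h, 25 °C, after 30 min enzyme–compound preincubation. Normalised to BB-Cl-Amidine (50 µM) and DMSO controls.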

T1 sequence (Q9UM07 2-663): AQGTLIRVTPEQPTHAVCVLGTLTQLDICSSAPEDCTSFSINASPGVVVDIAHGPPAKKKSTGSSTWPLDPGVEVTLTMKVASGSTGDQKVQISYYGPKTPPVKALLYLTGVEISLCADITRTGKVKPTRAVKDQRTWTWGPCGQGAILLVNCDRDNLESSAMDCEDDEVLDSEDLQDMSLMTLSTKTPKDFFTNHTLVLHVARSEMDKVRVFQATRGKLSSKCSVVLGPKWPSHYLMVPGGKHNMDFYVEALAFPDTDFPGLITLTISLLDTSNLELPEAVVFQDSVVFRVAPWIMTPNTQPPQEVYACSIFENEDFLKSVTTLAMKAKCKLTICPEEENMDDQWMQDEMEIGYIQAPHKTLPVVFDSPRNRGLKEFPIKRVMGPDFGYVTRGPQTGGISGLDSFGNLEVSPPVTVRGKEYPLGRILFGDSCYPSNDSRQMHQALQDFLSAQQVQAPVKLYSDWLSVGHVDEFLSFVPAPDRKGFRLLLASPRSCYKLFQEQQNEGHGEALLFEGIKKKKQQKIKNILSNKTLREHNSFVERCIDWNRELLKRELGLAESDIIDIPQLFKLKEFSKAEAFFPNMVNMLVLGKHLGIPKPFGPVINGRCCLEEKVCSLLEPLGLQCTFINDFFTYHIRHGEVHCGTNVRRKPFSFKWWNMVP

Row | Structure (SMILES) | IC50 [nM]
1 | COc1cc(C(=O)N2C[C@H]3CC[C@@H]2[C@@H]3N)cc2nc(-c3cc4ccc5nc4n3CCCCCCC(C)(C)C(=O)N[C@@H]5C)n(C)c12 [Example 13, (11~{R})-17-[5-[(1~{R},4~{R},7~{R})-7-amino-2-azabicyclo[2.2.1]heptane-2-carbonyl]-7-methoxy-1-methyl-benzimidazol-2-yl]-8,8,11-trimethyl-1,10,19-triazatricyclo[10.5.2.0^{15,18}]nonadeca-12(19),13,15(18),16-tetraen-9-one] | 121
2 | COc1cc(C(=O)N2CC[C@@H](OCC(F)F)[C@@H](N)C2)cc2nc(-c3cc4ccc5nc4n3CCCCCCC(C)(C)C(=O)N[C@@H]5C)n(C)c12 [Example 14, (11~{R})-17-[5-[(3~{S),4~{R})-3-amino-4-(2,2-difluoroethoxy)piperidine-1-carbonyl]-7-methoxy-1-methyl-benzimidazol-2-yl]-8,8,11-trimethyl-1,10,19-triazatricyclo[10.5.2.0^{15,18}]nonadeca-12(19),13,15(18),16-tetraen-9-one] | 121
3 | COc1cc(C(=O)N2CCC[C@@H](N)C2)cc2nc(-c3cc4ccc5nc4n3CCCCCOC(C)(C)C(=O)N[C@@H]5C)n(C)c12 [Example 18, (11~{R})-17-[5-[(3~{R})-3-aminopiperidine-1-carbonyl]-7-methoxy-1-methyl-benzimidazol-2-yl]-8,8,11-trimethyl-7-oxa-1,10,19-triazatricyclo[10.5.2.0^{15,18}]nonadeca-12(19),13,15(18),16-tetraen-9-one] | 85
4 | COc1cc(C(=O)N2CCC[C@@H](N)C2)cc2nc(-c3cc4ccc5nc4n3CCCCCCc3cn(nn3)C5C)n(C)c12 (stereo partly shown) [Example 25, [(3˜{R})-3-amino-1-piperidyl]-[7-methoxy-1-methyl-2-(2-methyl-3,4,5,13,19-pentazatetracyclo[11.5.2.1^{3,6}.0^{16,20}]henicosa-1(19),4,6(21),14,16(20),17-hexaen-14-yl)benzimidazol-5-yl]methanone] | 775
5 | COc1cc(C(=O)N2CCC[C@@H](N)C2)cn2nc(-c3cc4ccc5nc4n3CCCCCCCC(=O)N[C@@H]5C)c(C)c12 [Example 26, (11~{R})-17-[6-[(3~{R})-3-aminopiperidine-1-carbonyl]-4-methoxy-3-methyl-pyrazolo[1,5-a]pyridin-2-yl]-11-methyl-1,10,19-triazatricyclo[10.5.2.0^{15,18}]nonadeca-12(19),13,15(18),16-tetraen-9-one] | 86
6 | COc1cc(C(=O)N2CCC[C@@H](N)C2)cn2nc(-c3cc4ccc5nc4n3CCCCCCC(C)(C)C(=O)N[C@@H]5C)c(C)c12 [Example 27, (11~{R})-17-[6-[(3~{R})-3-aminopiperidine-1-carbonyl]-4-methoxy-3-methyl-pyrazolo[1,5-a]pyridin-2-yl]-8,8,11-trimethyl-1,10,19-triazatricyclo[10.5.2.0^{15,18}]nonadeca-12(19),13,15(18),16-tetraen-9-one] | 201
7 | COc1cc(C(=O)N2CCC[C@@H](N)C2)cc2nc(-c3cc4ccc5nc4n3CCCCOc3ccccc3C(=O)N[C@@H]5C)n(C)c12 [Example 30, (2~{R})-17-[5-[(3~{R})-3-aminopiperidine-1-carbonyl]-7-methoxy-1-methyl-benzimidazol-2-yl]-2-methyl-11-oxa-3,16,22-triazatetracyclo[14.5.2.0^{5,10).0^{19,23}] tricosa-1(22),5,7,9,17,19(23),20-heptaen-4-one] | 1780
8 | COc1cc(C(=O)N[C@H]2CNCC[C@@H]2F)cc2nc(-c3cc4ccc5nc4n3CCCCCc3ccccc3C(=O)N[C@@H]5C)n(C)c12 [Example 31, ~{N}-[(3~{S},4~{S})-4-fluoro-3-piperidyl]-7-methoxy-1-methyl-2-[(2~{R})-2-methyl-4-oxo-3,16,22-triazatetracyclo[14.5.2.0^{5,10}.0^{19,23}]tricosa-1(22),5,7,9,17,19(23),20-heptaen-17-yl]benzimidazole-5-carboxamide] | 81

Now those with a lower IC50, led by results:

Row | IC50 [nM] | Structure (SMILES)
9 | 60 | COc1cc(C(=O)N2CCC[C@@H](N)[C@H]2C)cc2nc(-c3cc4ccc5nc4n3CCCCCCC(C)(C)C(=O)N[C@@H]5C)n(C)c12 [Example 15, (11~{R})-17-[5-[(2~{R},3~{R})-3-amino-2-methyl-piperidine-1-carbonyl]-7-methoxy-1-methyl-benzimidazol-2-yl]-8,8,11-trimethyl-1,10,19-triazatricyclo[10.5.2.0^{15,18}]nonadeca-12(19),13,15(18),16-tetraen-9-one]
10 | 67 | COc1cc(C(=O)N2CCC[C@@H](N)C2)cc2nc(-c3cc4ccc5nc4n3CCCCCCC(C)(C)C(=O)N[C@@H]5C)n(C)c12 [Example 16, (11~{R})-17-[5-[(3~{R})-3-aminopiperidine-1-carbonyl]-7-methoxy-1-methyl-benzimidazol-2-yl]-8,8,11-trimethyl-1,10,19-triazatricyclo[10.5.2.0^{15,18}]nonadeca-12(19),13,15(18),16-tetraen-9-one]
11 | 74 | COc1cc(C(=O)N2CCC[C@@H](N)C2)cc2nc(-c3cc4ccc5nc4n3CCCCCOCC(C)(C)C(=O)N[C@@H]5C)n(C)c12 [Example 17, (12~{R})-18-[5-[(3~{R})-3-aminopiperidine-1-carbonyl]-7-methoxy-1-methyl-benzimidazol-2-yl]-9,9,12-trimethyl-7-oxa-1,11,20-triazatricyclo[11.5.2.0^{16,19}]icosa-13(20),14,16(19),17-tetraen-10-one]
12 | 76 | COc1cc(C(=O)N[C@H]2CNCC[C@@H]2F)cc2nc(-c3cc4ccc5nc4n3CCCCCOC(C)(C)C(=O)N[C@@H]5C)n(C)c12 [Example 19, ~{N}-[(3~{S},4~{S})-4-fluoro-3-piperidyl]-7-methoxy-1-methyl-2-[(11~{R})-8,8,11-trimethyl-9-oxo-7-oxa-1,10,19-triazatricyclo[10.5.2.0^{15,18}]nonadeca-12(19),13,15(18),16-tetraen-17-yl]benzimidazole-5-carboxamide]
13 | 62 | COc1cc(C(=O)N2[C@H]3CC[C@@H]2[C@H](N)C3)cc2nc(-c3cc4ccc5nc4n3CCCCCCC(C)(C)C(=O)N[C@@H]5C)n(C)c12 [Example 20, (11~{R})-17-[5-[(1~{R},2~{R},4~{S})-2-amino-7-azabicyclo[2.2.1]heptane-7-carbonyl]-7-methoxy-1-methyl-benzimidazol-2-yl]-8,8,11-trimethyl-1,10,19-triazatricyclo[10.5.2.0^{15,18}]nonadeca-12(19),13,15(18),16-tetraen-9-one]
14 | 63 | COc1cc(C(=O)N2[C@H]3CC[C@@H]2[C@H](N)C3)cc2nc(-c3cc4ccc5nc4n3CCCCCOC(C)(C)C(=O)N[C@@H]5C)n(C)c12 [Example 21, (11~{R})-17-[5-[(1~{R},2~{R},4~{S})-2-amino-7-azabicyclo[2.2.1]heptane-7-carbonyl]-7-methoxy-1-methyl-benzimidazol-2-yl]-8,8,11-trimethyl-7-oxa-1,10,19-triazatricyclo[10.5.2.0^{15,18}]nonadeca-12(19),13,15(18),16-tetraen-9-one]
15 | 62 | COc1cc(C(=O)N2[C@H]3CC[C@@H]2[C@H](N)C3)cc2nc(-c3cc4ccc5nc4n3CCCCCOCC(C)(C)C(=O)N[C@@H]5C)n(C)c12 [Example 22, (12~{R})-18-[5-[(1~{R},2~{R},4~{S})-2-amino-7-azabicyclo[2.2.1]heptane-7-carbonyl]-7-methoxy-1-methyl-benzimidazol-2-yl]-9,9,12-trimethyl-7-oxa-1,11,20-triazatricyclo[11.5.2.0^{16,19}]icosa-13(20),14,16(19),17-tetraen-10-one]
16 | 40 | COc1cc(C(=O)N2[C@H]3CC[C@@H]2[C@H](N)C3)cc2nc(-c3cc4ccc5nc4n3C/C=C\CCCCS(=O)(=O)N[C@@H]5C)n(C)c12 [Example 23, [(1˜{R},2˜{R},4˜{S})-2-amino-7-azabicyclo[2.2.1]heptan-7-yl]-[7-methoxy-1-methyl-2-[(11˜{R})-11-methyl-9,9-dioxo-9$1^6-thia-1,10,19-triazatricyclo[10.5.2.0^{15,18}]nonadeca-3,12(19),13,15(18),16-pentaen-17-yl]benzimidazol-5-yl]methanone]
17 | 56 | COc1cc(C(=O)N2[C@H]3CC[C@@H]2[C@H](N)C3)cc2nc(-c3cc4ccc5nc4n3CCC/C=C/c3ccccc3C(=O)N[C@@H]5C)n(C)c12 [Example 24, (2~{R},11~{E})-17-[5-[(1~{R},2~{R},4~{S})-2-amino-7-azabicyclo[2.2.1]heptane-7-carbonyl]-7-methoxy-1-methyl-benzimidazol-2-yl]-2-methyl-3,16,22-triazatetracyclo[14.5.2.0^{5,10}.0^{19,23}] tricosa-1(22),5,7,9,11,17,19(23),20-octaen-4-one]
18 | 46 | COc1cc(C(=O)N2CCC[C@@H](N)C2)cc2nc(-c3cc4ccc5nc4n3CCCCCc3ccccc3C(=O)N[C@@H]5C)n(C)c12 [Example 28, (2~{R})-17-[5-[(3~{R})-3-aminopiperidine-1-carbonyl]-7-methoxy-1-methyl-benzimidazol-2-yl]-2-methyl-3,16,22-triazatetracyclo[14.5.2.0^{5,10}.0^{19,23}] tricosa-1(22),5,7,9,17,19(23),20-heptaen-4-one]
19 | 70 | COc1cc(C(=O)N2CCC[C@@H](N)C2)cc2nc(-c3cc4ccc5nc4n3CCCCCCc3ccccc3C(=O)N[C@@H]5C)n(C)c12 [Example 29, (2~{R})-18-[5-[(3~{R})-3-aminopiperidine-1-carbonyl]-7-methoxy-1-methyl-benzimidazol-2-yl]-2-methyl-3,17,23-triazatetracyclo[15.5.2.0^{5,10}.0^{20,24}] tetracosa-1(23),5,7,9,18,20(24),21-heptaen-4-one]
